Values of other authors in patent US6596297B2, “Biodegradable microbicidal vaginal barrier device” (New York Blood Center, Inc., priority 2002, dated 2003).

Test system: HIV-1

## Nonoxynol-9 [N-9]
  risk of sexual transmission of HIV-1: increase the risk of sexual transmission of HIV-1
